Patent publication US12162855B2, “Tetrahydroquinolino derivatives for the treatment of metastatic and chemoresistant cancers” (THE TRUSTEES OF PRINCETON UNIVERSITY, priority 2018, dated 2024)

Biological target: T1, ALDH1a3 (Homo sapiens, UniProt P47895)
T1 construct: lentiviral vectors containing either the vector backbone or full-length human Aldh1a3; expressed in transfected cells; host or cells: SUM159-M1a (A1) and SUM159 (A7) breast cancer cells, lentiviral pLex vector, puromycin selection
T1 sequence (P47895 1-512): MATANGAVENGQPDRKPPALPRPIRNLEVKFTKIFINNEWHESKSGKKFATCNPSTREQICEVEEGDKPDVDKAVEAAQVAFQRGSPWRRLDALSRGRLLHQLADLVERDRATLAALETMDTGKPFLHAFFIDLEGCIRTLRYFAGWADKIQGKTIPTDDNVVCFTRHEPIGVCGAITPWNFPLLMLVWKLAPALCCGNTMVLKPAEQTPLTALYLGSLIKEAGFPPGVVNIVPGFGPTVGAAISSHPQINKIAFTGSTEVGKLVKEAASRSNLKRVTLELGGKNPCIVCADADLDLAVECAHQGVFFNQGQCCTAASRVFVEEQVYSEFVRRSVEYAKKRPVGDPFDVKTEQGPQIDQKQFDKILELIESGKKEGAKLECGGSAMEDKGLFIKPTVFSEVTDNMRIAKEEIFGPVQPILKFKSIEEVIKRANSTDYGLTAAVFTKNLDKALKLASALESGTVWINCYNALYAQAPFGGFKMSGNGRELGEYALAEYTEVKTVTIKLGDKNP
Experiment: ALDEFLUOR assay in SUM159-M1a-Aldh1a3 cells (flow cytometry)
Type: cell-based
Details: for inhibition at 0.1 µM / Percent of Cells Positive for ALDEFLUOR at 100 nM: SUM159-M1a-Aldh1a3 cells, compound at 100 nM; for inhibition at 0.1 µM: read-out: Inhibitory Activity at 100 nM (%)
Method: Cells were counted, centrifuged and resuspended at 1,000,000 cells/mL in ALDEFLUOR™ buffer (Stemcell Technologies). ALDEFLUOR™ substrate (Stemcell Technologies, 1:200) and test compound or 1 mM DEAB were added to cell suspension and incubated at 37° C. for 45 minutes with vortexing every 15 minutes. Cells were centrifuged and resuspended in ALDEFLUOR™ buffer with DAPI at 5 μg/mL. Samples were analyzed with the BD LSR2 flow cytometry platform. Gating was performed using DEAB as a negative control.
Gating for background fluorescence was performed using 1 millimolar DEAB as a negative control.
The [inh-min] threshold was set at the lower bound of two standard deviations of control samples, while the IC50 threshold was set at 50% of the average of control samples.
High activity was gated at the 99th percentile of cells at a MBE1.5 concentration of 10 nanomolar. The [inh-min] threshold was set at the lower bound of two standard deviations of control samples.
An ALDEFLUOR™ assay was also used to assess the relative activity of several compounds described herein against SUM159-M1a-Aldh1a3 cells. The activity of several compounds in the assay at a concentration of 100 nM is reported in Table 1, along with the chemical structure and compound name associated with each compound.

Compound | inhibition at 0.1 µM [%] | Percent of Cells Positive for ALDEFLUOR at 100 nM [%] | relative potency, ALDEFLUOR activity (FIG. 12) (concentration of 10 nM, compared to DMSO or DEAB-treated cells) | inhibition of ALDH1a3 activity (FIG. 1A) (compounds at 100 nM)
O=C1CCc2cc(NC(=O)c3ccncc3)c(F)cc2N1 [MBE1.2, N-(7-fluoro-2-oxo-1,2,3,4-tetrahydroquinolin-6-yl)isonicotinamide] | 8 |  |  | 
CC(C)Cc1ccccc1C(=O)Nc1cc2c(cc1F)NC(=O)CC2 [MBE1.5C, N-(7-fluoro-2-oxo-1,2,3,4-tetrahydroquinolin-6-yl)-2-isobutylbenzamide] |  |  | nearly twice as potent as MBE 1.5, MBE 1.5A or MBE 1.5D | 
CCc1cnccc1C(=O)Nc1ccc2c(c1)CCC(=O)N2 [MBE1.6, 3-ethyl-N-(2-oxo-1,2,3,4-tetrahydroquinolin-6-yl)isonicotinamide] | 83 | 13 |  | high-affinity compounds for the inhibition of ALDH1a3 activity
O=C1CCc2cc(NC(=O)c3ccncc3F)c(F)cc2N1 [MBE3.5, 3-fluoro-N-(7-fluoro-2-oxo-1,2,3,4-tetrahydroquinolin-6-yl)isonicotinamide] | 18 | 63 |  | 
Cc1cncc(C(=O)Nc2cc3c(cc2F)NC(=O)CC3)c1 [MBE3.6, N-(7-fluoro-2-oxo-1,2,3,4-tetrahydroquinolin-6-yl)-5-methylnicotinamide] | 29 | 55 |  | 
O=C1CCc2cc(NCc3ccc[nH]3)c(F)cc2N1 [MBE3.8, 6-(((1H-pyrrol-2-yl)methyl)amino)-7-fluoro-3,4-dihydroquinolin-2(1H)-one] | 2 | 75 |  | 

Continued, in another order:

inhibition at 0.1 µM [%] | Percent of Cells Positive for ALDEFLUOR at 100 nM [%] | Compound | relative potency, ALDEFLUOR activity (FIG. 12) (concentration of 10 nM, compared to DMSO or DEAB-treated cells) | inhibition of ALDH1a3 activity (FIG. 1A) (compounds at 100 nM)
45 |  | Cc1ccc(C)c(CNc2ccc3c(c2)CCC(=O)N3)c1 [MBE2, 6-((2,5-dimethylbenzyl)amino)-3,4-dihydroquinolin-2(1H)-one] |  | 
0.6 |  | Cc1ccc(C(=O)Nc2ccc3c(c2)CCC(=O)N3)cc1C [MBE3.1, 3,4-dimethyl-N-(2-oxo-1,2,3,4-tetrahydroquinolin-6-yl)benzamide] |  | 
3.3 |  | Cc1ccc(C(=O)Nc2ccc3c(c2)CCC(=O)N3)c(C)c1 [MBE3.2, 2,4-dimethyl-N-(2-oxo-1,2,3,4-tetrahydroquinolin-6-yl)benzamide] |  | 
42 |  | Cc1ccccc1C(=O)Nc1ccc2c(c1)CCC(=O)N2 [MBE3.3, 2-methyl-N-(2-oxo-1,2,3,4-tetrahydroquinolin-6-yl)benzamide] |  | 
11 |  | O=C1CCc2cc(NCc3ccccc3)ccc2N1 [MBE3.4, 6-(benzylamino)-3,4-dihydroquinolin-2(1H)-one] |  | 
